Measured values from US9849186B2, “Triblock copolymer and use therefor” (priority 2012, dated 2017).

What was measured:
[1] = Local retention of injectable gel, imaging by L-band electron spin resonance; conditions: 70 μl s.c. into hind paw
Description: Three mice were used in each group. 70 μl of a solution of the nitroxide radical-containing polyion complex micelles used in Test 1 (PMNT-b-PEG-b-PMNT to PAA molar ratio r=1:1 (RIG). pH 6, 60 mg/ml) was injected subcutaneously into the left hind paws of three mice. […] Local retention of nitroxide radicals in the mouse paws was imaged by L-band electron spin resonance (ESR) using mice immediately after administration.

[2] = system: myeloperoxidase (MPO) activity; assay: Carrageenan-induced arthritis model: MPO activity as marker of neutrophil infiltration; assay type: in vivo, mice; conditions: 50 μl s.c. right hind paw; 5% carrageenan 18 hours later; measured 6 hours after carrageenan
Description: Five mice (n=5) were used in each of 9 groups (Control, RIG, nRIG, Saline@Carr, RIG@Carr, nRIG@Carr, 4-amino-TEMPO@Carr, RNP^N@Carr, nRIG+4-amino-TEMPO@Carr).
50 μl each of nitroxide radical-containing polyion complex micelles for forming an RIG gel (RIG; molar ratio r=1:1, pH 6, 60 mg/ml), nitroxide radical-free polyion complex micelles for forming an nRIG gel (nRIG; molar ratio r=1:1, pH 6, 60 mg/ml), saline, a low-molecular-weight nitroxide radical compound solution (4-aminoTEMPO; 5.45 mg/ml), a nitroxide radical-containing polymer micelle solution (RNP^N; 60 mg/ml), and a solution of low-molecular-weight 4-aminoTEMPO physically mixed with nitroxide radical-free polyion complex micelles (n-RIG+4-aminoTEMPO; molar ratio r=1:1, pH 6, 60 mg/ml) was then injected subcutaneously into the right hind paws of mice. 18 hours later, 50 μl of 5% carrageenan buffer was injected subcutaneously into the right hind paws of the mice in the Saline@Carr, RIG@Carr, nRIG@Carr, 4-amino-TEMPO@Carr, RNP^N@Carr, and nRIG+4-aminoTEMPO@Carr groups (n=5). Nothing was administered to the Control group (n=5). […] The collected tissue of the mouse right hind paws was then homogenized, and the amount of inflammatory cytokines (TNF-α and IL-1β) and myeloperoxidase (MPO) activity as a marker of neutrophil infiltration were measured with an ELISA kit in the supernatant collected by centrifugation.

With `CC1(C)CC(N)CC(C)(C)N1[O]` [4-aminoTEMPO, 4-amino-TEMPO] the “time after administration at which ESR signal disappeared from mouse paws” value [1] was at most 30 min and the “suppression of MPO activity caused by carrageenan” value [2] was “not significantly suppressed”.
